Laboratory results: publication PMC9594042, “Probing the KRas Switch II Groove by Fluorine NMR Spectroscopy” (ACS Chemical Biology, 2022)
Where two headings read alike, the source gives them in different places.

Assays:
KRas^G12D GDP [1] = target: T1, KRas^G12D GDP (Homo sapiens, UniProt P01116, G12D); assay: 19F CPMG NMR probe binding (I/I0 vs probe concentration), GDP state
T1 construct: HRas 1-166 (His-TEV-N; pProEx; ampicillin resistance) and KRas 1-169; His tag with TEV site (N, cleaved yes); made in house; host or cells: E. coli BL21(DE3)
Description: (§1) We then sought to determine whether these SIIG-binders could serve as probe ligands to detect KRas proteins by ^19F NMR spectroscopy. One-dimensional CPMG experiments [90-(τ-180-τ)n], in which a spin–echo with delay τ is looped n times, attenuate signal intensity as a function of the transverse relaxation rate (R2) and total spin echo time (2·τ·n). Prior studies have shown that reversible binding of proteins to fluorine-containing small molecules induces an increase in the observed ^19F R2 at long values of τ, which maximize the exchange contribution to R2.[24],[25] […] Further modifications to the probe structure were required to improve its binding affinity and the sensitivity of the ^19F CPMG NMR assay.
(§2) The probe and protein concentrations were varied to determine the dependence on each binding partner. The normalized integrals (I/I0) of the probes decreased exponentially with increasing protein concentrations (Figure 2C, Figure S2C,D). The normalized integrals increased with increasing probe concentrations, and KD values for the probe–protein binding were extracted by fitting the data to eq 1 (Figure 2D, SI).
(§3) All non-linear regressions were performed in Graphpad Prism v9 with data points handled as individual values.
(§4) Constrained constants are noted.
(§5) Integrals (I) from single-point CPMG experiments were calculated by dividing the probe’s absolute integral by the standard’s absolute integral (3-trifluoromethylphenol, 3TFMP) from the same sample. The resulting integral values (I) were averaged (n=3) and then normalized by dividing by the measurement obtained in the absence of protein (I0, n=1 or 3). Errors in I/I 0 and -ln(I/I0) were propagated from the standard devi ations (SD) in I and I 0. In all cases, I and I0 were measured from the same premixed aliquot of probe and 3 -trifluoromethylphenol.
(§6) The KD values of probes were calculated by fitting normalized integrals to equation 1 , where I and I0 are the integrals in the presence and absence of protein, respectively, A is a constant in Hz, t is the total spin-echo time (2·τ·n), and [P]0 and [L]0 are the total concentrations of protein and probe, respectively (constraining [P]0 and t). See the supplementary information for derivation.
(§7) I⁄I = e−A∙t∙[P]0⁄(KD+[L]0) (eq 1) […]
(§8) Preparation of Ras proteins.
(§9) The plasmids for bacterial expression of HRas 1-166 (His-TEV-N; pProEx; ampicillin resistance) and KRas 1-169 (His-TEV-N; pJ411; kanamycin resistance) have been previously published.1 Mutants were obtained by site-directed mutagenesis (Q5, NEB; or Genscript Biotech). BL21(DE3) competent cells were transformed with 1-2 ng of plasmid.
(§10) Cultures for the preparation of natural abundance isotope proteins were grown at 37 °C (A600 0.4 -0.6) in Terrific Broth (Sigma Aldrich), induced (1 mM IPTG), and allowed to express protein overnight at 18 °C. Cultures for the preparation of U -15N proteins were grown and induced in M9 minimal media supplemented with 1 g/L 15NH4Cl (CIL).
(§11) Cells were collected by centrifugation, lysed by sonication (Tris buffer pH 8.0, supplemented with 1 mM PMSF or 1 tablet per 50 ml EDTA-free cOmplete, Roche), and cleared by centrifugation. His -tagged Ras proteins were isolated with Co TALON resin (Takara Bio), the nucl eotide was exchanged to GDP by dialysis (0.5 mM EDTA), the His tag was cleaved with TEV protease, and the protein was purified by anion exchange (Tris buffer pH 8.0, 50 -500 NaCl gradient, HiTrap Q HP, Cytiva) and gel filtration (HEPES storage buffer pH 7.5 , Superdex 75, GE or Cytiva).
(§12) Nucleotide exchange from GDP to GPPNHP (Jena Biosciences) was performed with samples of protein reserved prior to the final gel filtration purification and according to a published procedure comprising EDTA -mediated exchange, desalting, and cleavage of residual GDP with an alkaline phosphatase (CIP or Quick CIP, NEB) 1-4, and then purified by gel filtration. Proteins were concentrated (10k Amicon Ultra, Millipore) to 0.5-1 mM, concentrations were […]
flash frozen in liquid N2 and stored at -80 °C. […]

KRas^G12D GNP = target: T2, KRas^G12D GNP (Homo sapiens, UniProt P01116, G12D); assay: 19F CPMG NMR probe binding (I/I0 vs probe concentration), GNP state
T2 construct: HRas 1-166 (His-TEV-N; pProEx; ampicillin resistance) and KRas 1-169; His tag with TEV site (N, cleaved yes); made in house; host or cells: E. coli BL21(DE3)
Description: as §1, §2, §3, §4, §5, §6, §7, §8
as §9, with “plasmid. […]” for “plasmid.”

[2] = target: T3, KRas^G12D (both nucleotide states) (Homo sapiens, UniProt P01116, G12D); assay: 19F CPMG NMR detection of KRas^G12D by probes (normalized integrals I/I0); format: binding; settings: probe 100 μM, KRas^G12D 6 μM; for sensitivity of detection compared to 3 and 4: 160 ms CPMG; for nucleotide state detected: GDP vs GNP
T3 construct: HRas 1-166 (His-TEV-N; pProEx; ampicillin resistance) and KRas 1-169; His tag with TEV site (N, cleaved yes); made in house; host or cells: E. coli BL21(DE3)
Description: as §1
To improve the sensitivity of this method for oncogenic KRas proteins and to explore the relationship between structure and nucleotide-state specificity, we synthesized a series of derivatives of 3 and 4 with varied structure at the aryl ring expected to be buried deepest within the pocket, and these derivatives were evaluated by CPMG NMR spectroscopy against both nucleotide states of KRas^G12D (6 μM; Figure 2A,B). […] Probe 9 relaxed more slowly in the absence of protein (R2,free = 2.4 Hz) than did compounds containing the C-5 hydroxy group (R2,free = 6.3 Hz for 4, 4.4 Hz for 12, and 5.0 Hz for 17), increasing the sensitivity and dynamic range of integral measurements with this probe (Figure S2). Furthermore, probe 9 was confirmed to be a tighter binder to the SIIG of U–^15N KRas^G12D GDP by HSQC NMR compared to 4 (Figure S3).
Figure 2 SAR of SIIG binders enables more sensitive detection of KRas^G12D. (a) Chemical structures of SIIG binders. (b) Normalized integrals (I/I0) from ^19F CPMG NMR spectra (160 ms) of probes (100 μM) with KRas^G12D (6 μM); values are means ± errors propagated from SD (n = 3). (c) Effect of varying KRas^G12D concentration on I/I0; values are means ± errors propagated from SD (n = 3). (d) Effect of varying probe concentration on I/I0; [P]0 = 6 μM for probes 9 and 12, 3 μM for probe 17; individual points shown (n = 3); data fit to eq 1 (SI).
as §8, §9, §10, §11, §12
flash frozen in liquid N2 and stored at -80 °C.
Storage buffer: 20 mM HEPES, 150 mM NaCl, 1 mM MgCl2. Titrated to pH 7.5 with NaOH. Storage buffer for U- […]

[3] = tested on: panel of KRas proteins (G12 and Q61 mutations), GDP and GNP states; assay: 19F CPMG NMR detection of a panel of KRas and HRas proteins; format: binding; settings: probe 100 μM, protein 6 μM, 160 ms CPMG
Experimental: The closely related protein HRas 1–166 contains only one residue difference within the SIIG binding site (Q95 in HRas vs H95 in KRas). HRas was only weakly detected by this method; however, the results with HRas^Q95H closely matched those obtained with KRas^WT.
Figure 3 ^19F CPMG NMR spectroscopy detects a variety of oncogenic KRas proteins. Normalized integrals (I/I0) from ^19F CPMG NMR spectra (160 ms) of 100 μM 9 (a), 12 (b), or 17 (c) in the presence of 6 μM KRas or HRas proteins; values are means ± errors propagated from the SDs of I and I0 (n = 3).
as §8, §9, §10
Cells were collected by centrifugation, lysed by sonication (Tris buffer pH 8.0, supplemented with 1 mM PMSF or 1 tablet per 50 ml EDTA-free cOmplete, Roche), and cleared by centrifugation. […]
1D 1H (ZGESGP) and 2D 1H-15N fast HSQC (FHSQCCF3GPPH, NS = 8, TDF1 = 256, GARP decoupling) spectra were recorded at 298 K on an 800 MHz Bruker Avance NEO spectrometer equipped with an actively shielded Z-gradient 5 mm TCI cryoprobe (H&F/C/N) using programs from the pulse program library (TopSpin 4.0.8). Spectra were processed and analyzed with Bruker Topspin 4.0 and CCPNMR Analysis v3.5 1H chemical shifts were referenced to 1 mM DSS at 0 ppm; 15N chemical shifts were referenced indirectly with Ξ = 0.101329118. […]

KRas^G12D GDP [4] = target: T1, KRas^G12D GDP; format: binding; settings: tested at 60 μM; probe 9 100 µM, protein 2 µM GDP-bound
[5] = target: T4, KRas^G12D GDP and KRas^G12D GNP (Homo sapiens, UniProt P01116, G12D); assay: Dual-probe (9 and 12 in mixture) 19F CPMG NMR monitoring of both nucleotide states; format: binding; settings: 6 μM each state
T4 construct: HRas 1-166 (His-TEV-N; pProEx; ampicillin resistance) and KRas 1-169; His tag with TEV site (N, cleaved yes); made in house; host or cells: E. coli BL21(DE3)
Description: (1 picture or pasted object on this page, not shown here)

KRas^G12D = target: KRas^G12D; set-up: method as in PMID 34889605; settings: cited from earlier work
[6] = target: T5, U-15N KRas^G12D GDP 1-169 (Homo sapiens, UniProt P01116, G12D); assay: 1H-15N HSQC NMR binding; settings: six peaks fit to single site binding curve; pH 7.4, 298 K, 10% dmso-d6, 50 µM protein; error is SD of six peaks
T5 construct: HRas 1-166 (His-TEV-N; pProEx; ampicillin resistance) and KRas 1-169; His tag with TEV site (N, cleaved yes); made in house; host or cells: E. coli BL21(DE3)

Aqueous solubility = format: physicochemical
[7] = 19F CPMG 160 ms, varying probe concentration, [P]0 = 6 μM for 9 and 12, 3 μM for 17, fit to eq 1, read-out: KD
[8] = non-linear regression eq 1, t=0.16 s, read-out: KD (extracted value, Table S1)
[9] = 19F CPMG 160 ms, varying probe concentration, [P]0 = 6 μM for 12, 3 μM for 17, fit to eq 1, read-out: KD

Kd (KRas^G12D GDP [1]; [7]) [µM]	Kd (KRas^G12D GDP [1]; [8]) [µM]	sensitivity of detection compared to 3 and 4 [2]	Structure (SMILES)	nucleotide state detected [2]	detection of oncogenic KRas proteins [3]	also measured
310	307	increased sensitivity	Cc1c(Cl)cc(O)cc1NC(=O)c1cnn(-c2ccc(OCCOCC(=O)NCCN)cc2)c1C(F)(F)F [compound 12]	detected both nucleotide states with similar sensitivity	detected both nucleotide states of all oncogene products tested	Kd (KRas^G12D GNP; [9]): 780 µM; Kd (KRas^G12D GNP; [8]): 778 µM
–	–	–	C=CC(=O)N1CC2(CC(n3nc(-c4ccc5c(cnn5C)c4)c(-c4c(Cl)c(C)cc5[nH]ncc45)c3C)C2)C1 [JDQ443]	–	–	occupancy of the SIIP of KRas^G12D (KRas^G12D GDP [4]): did not occupy
–	–	–	C#Cc1c(F)ccc2cc(O)cc(-c3ncc4c(N5CC6CCC(C5)N6)nc(OC[C@@]56CCCN5C[C@H](F)C6)nc4c3F)c12 [MRTX1133]	–	–	nucleotide state occupied ([5]; 9 and 12 50 μM each, MRTX849 60 μM, MRTX1133 in excess 15 μM, KD2 30 μM): occupied both nucleotide states; nucleotide state occupied ([5]; substoichiometric quantities (2, 4, and 6 μM)): selectively occupied the GDP-state; Ki (KRas^G12D; GDP state): < 1 pM; binding affinity (KRas^G12D): subpicomolar
200	204	increased sensitivity	NCCNC(=O)COCCOc1ccc(-n2ncc(C(=O)Nc3ccc(O)c(Cl)c3)c2C(F)(F)F)cc1 [compound 9]	specifically detected the GDP state	most sensitively detected the GDP state of KRas^G12D	Kd [6]: 580 ± 280 µM
350	352	increased sensitivity	NCCNC(=O)COCCOc1ccc(-n2ncc(C(=O)Nc3cc(O)cc4ccccc34)c2C(F)(F)F)cc1 [compound 17]	detected both nucleotide states with similar sensitivity	detected both nucleotide states of all oncogene products tested	Kd (KRas^G12D GNP; [9]): 390 µM; Kd (KRas^G12D GNP; [8]): 393 µM
–	–	increased sensitivity	Cc1c(NC(=O)c2cnn(-c3ccc(OCCOCC(=O)NCCN)cc3)c2C(F)(F)F)ccc(O)c1Cl [compound 15]	–	–	–
–	–	–	C=CC(=O)Nc1cc(Cl)cc(NC(=O)c2cnn(-c3ccc(OC)cc3)c2C(F)(F)F)c1 [compound 2]	–	–	aqueous solubility (Aqueous solubility): very low
–	–	increased sensitivity	NCCNC(=O)COCCOc1ccc(-n2ncc(C(=O)Nc3cc(O)cc(Cl)c3C3CC3)c2C(F)(F)F)cc1 [compound 14]	–	–	–
